Molecular target: Arabidopsis thaliana SHMT
Assay: SHMT activity assay (ED50 SHMT), coupled with N5,N10-CH2-THF dehydrogenase, NADH at 340 nm
Assay type: biochemical
Conditions: Table 2; values given as upper bounds
Outline: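 His-tagged SHMT purified on Ni-NTA. NADH formation followed at 340 nm for 30 min; ED50 from inhibition of initial velocity.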

Row | Compound | EC50
1 | Cc1n[nH]c2c1C(c1cc(Cl)c(O)c(C#N)c1)(C1CCC1)C(C#N)=C(N)O2 (stereo not drawn) [Compound 2.567] | < 100 nM
2 | Cc1n[nH]c2c1C(c1cc(Cl)cc(CC#N)c1)(C1CCC1)C(C#N)=C(N)O2 (stereo not drawn) [Compound 2.568] | < 10 nM
3 | Cc1n[nH]c2c1C(c1cc(Cl)cc(Cc3nnn[nH]3)c1)(C1CCC1)C(C#N)=C(N)O2 (stereo not drawn) [Compound 2.570] | < 10 nM
4 | COC(=O)c1cc(C(=O)O)cc(-c2cc(C#N)cc(C3(C4CCC4)C(C#N)=C(N)Oc4[nH]nc(C)c43)c2)c1 (stereo not drawn) [Compound 2.571] | < 100 nM
5 | COC(=O)c1cc(-c2cc(C#N)cc(C3(C4CCC4)C(C#N)=C(N)Oc4[nH]nc(C)c43)c2)ccc1C(=O)O (stereo not drawn) [Compound 2.572] | < 100 nM
6 | CCc1n[nH]c2c1C(CC)(c1cc(Cl)cc(C#N)c1)C(C#N)=C(N)O2 (stereo not drawn) [Compound 2.573] | < 100 nM
7 | CCc1n[nH]c2c1C(CC)(c1cc(C#N)cc(C(F)(F)F)c1)C(C#N)=C(N)O2 (stereo not drawn) [Compound 2.574] | < 10 nM
8 | CCCC1(c2cc(C#N)cc(C(F)(F)F)c2)C(C#N)=C(N)Oc2[nH]nc(CC)c21 (stereo not drawn) [Compound 2.575] | < 10 nM
9 | CCc1n[nH]c2c1C(CC)(c1cc(Br)cc(C#N)c1)C(C#N)=C(N)O2 (stereo not drawn) [Compound 2.576] | < 100 nM
10 | CCCC1(c2cc(Cl)cc(C#N)c2)C(C#N)=C(N)Oc2[nH]nc(CC)c21 (stereo not drawn) [Compound 2.577] | < 100 nM
11 | CCCC1(c2cc(Br)cc(C#N)c2)C(C#N)=C(N)Oc2[nH]nc(CC)c21 (stereo not drawn) [Compound 2.578] | < 100 nM
12 | CCCC1(c2cc(C#N)cc(C#N)c2)C(C#N)=C(N)Oc2[nH]nc(CC)c21 (stereo not drawn) [Compound 2.579] | < 100 nM
13 | CCC1(c2cc(Cl)cc(C#N)c2)C(C#N)=C(N)Oc2[nH]nc(C(C)C)c21 (stereo not drawn) [Compound 2.580] | < 100 nM
14 | CCC1(c2cc(C#N)cc(C(F)(F)F)c2)C(C#N)=C(N)Oc2[nH]nc(C(C)C)c21 (stereo not drawn) [Compound 2.581] | < 100 nM
15 | CCCC1(c2cc(C#N)cc(C(F)(F)F)c2)C(C#N)=C(N)Oc2[nH]nc(C(C)C)c21 (stereo not drawn) [Compound 2.582] | < 10 nM
16 | CCC1(c2cc(Br)cc(C#N)c2)C(C#N)=C(N)Oc2[nH]nc(C(C)C)c21 (stereo not drawn) [Compound 2.583] | < 10 nM
17 | CCCC1(c2cc(Cl)cc(C#N)c2)C(C#N)=C(N)Oc2[nH]nc(C(C)C)c21 (stereo not drawn) [Compound 2.584] | < 10 nM
18 | CCCC1(c2cc(Br)cc(C#N)c2)C(C#N)=C(N)Oc2[nH]nc(C(C)C)c21 (stereo not drawn) [Compound 2.585] | < 100 nM
19 | CCCC1(c2cc(C#N)cc(C#N)c2)C(C#N)=C(N)Oc2[nH]nc(C(C)C)c21 (stereo not drawn) [Compound 2.586] | < 1000 nM
20 | CCC1(c2cc(Cl)cc(C#N)c2)C(C#N)=C(N)Oc2[nH]nc(COC)c21 (stereo not drawn) [Compound 2.587] | < 1000 nM
21 | CCC1(c2cc(C#N)cc(C(F)(F)F)c2)C(C#N)=C(N)Oc2[nH]nc(COC)c21 (stereo not drawn) [Compound 2.588] | < 100 nM
22 | CCCC1(c2cc(C#N)cc(C(F)(F)F)c2)C(C#N)=C(N)Oc2[nH]nc(COC)c21 (stereo not drawn) [Compound 2.589] | < 100 nM
23 | CCC1(c2cc(Br)cc(C#N)c2)C(C#N)=C(N)Oc2[nH]nc(COC)c21 (stereo not drawn) [Compound 2.590] | < 1000 nM
24 | CCCC1(c2cc(Cl)cc(C#N)c2)C(C#N)=C(N)Oc2[nH]nc(COC)c21 (stereo not drawn) [Compound 2.591] | < 10000 nM
25 | CCCC1(c2cc(Br)cc(C#N)c2)C(C#N)=C(N)Oc2[nH]nc(COC)c21 (stereo not drawn) [Compound 2.592] | < 1000 nM
26 | CCCC1(c2cc(C#N)cc(C#N)c2)C(C#N)=C(N)Oc2[nH]nc(COC)c21 (stereo not drawn) [Compound 2.593] | < 10000 nM
27 | Cc1n[nH]c2c1C(c1ccc(C(=O)O)c(Cl)c1)(C1CCC1)C(C#N)=C(N)O2 (stereo not drawn) [Compound 2.594] | < 1000 nM

Row | Compound | EC50
28 | Cc1n[nH]c2c1C(c1cc(Cl)cc(-c3ccc(NS(=O)(=O)C(F)(F)F)cc3)c1)(C1CCC1)C(C#N)=C(N)O2 (stereo not drawn) [Compound 2.595] | < 10 nM
29 | Cc1n[nH]c2c1C(c1cc(Cl)cc(Oc3cc(F)c(O)c(F)c3)c1)(C1CCC1)C(C#N)=C(N)O2 (stereo not drawn) [Compound 2.596] | < 10 nM
30 | Cc1n[nH]c2c1C(c1cc(Cl)cc(Oc3ccc(O)c(C(F)(F)F)c3)c1)(C1CCC1)C(C#N)=C(N)O2 (stereo not drawn) [Compound 2.597] | < 100 nM
31 | CCC1(c2cc(Cl)cc(C#N)c2)C(C#N)=C(N)Oc2[nH]nc(OC)c21 (stereo not drawn) [Compound 2.598] | < 1000 nM
32 | CCC1(c2cc(C#N)cc(C(F)(F)F)c2)C(C#N)=C(N)Oc2[nH]nc(OC)c21 (stereo not drawn) [Compound 2.599] | < 1000 nM
33 | CCCC1(c2cc(C#N)cc(C(F)(F)F)c2)C(C#N)=C(N)Oc2[nH]nc(OC)c21 (stereo not drawn) [Compound 2.600] | < 1000 nM
34 | CCC1(c2cc(Br)cc(C#N)c2)C(C#N)=C(N)Oc2[nH]nc(OC)c21 (stereo not drawn) [Compound 2.601] | < 1000 nM
35 | CCCC1(c2cc(Cl)cc(C#N)c2)C(C#N)=C(N)Oc2[nH]nc(OC)c21 (stereo not drawn) [Compound 2.602] | < 10000 nM
36 | CCCC1(c2cc(Br)cc(C#N)c2)C(C#N)=C(N)Oc2[nH]nc(OC)c21 (stereo not drawn) [Compound 2.603] | < 1000 nM
37 | CCCC1(c2cc(C#N)cc(C#N)c2)C(C#N)=C(N)Oc2[nH]nc(OC)c21 (stereo not drawn) [Compound 2.604] | < 1000 nM
38 | CCC1(c2cc(Cl)cc(C#N)c2)C(C#N)=C(N)Oc2[nH]nc(C(F)F)c21 (stereo not drawn) [Compound 2.605] | < 10 nM
39 | CCC1(c2cc(C#N)cc(C(F)(F)F)c2)C(C#N)=C(N)Oc2[nH]nc(C(F)F)c21 (stereo not drawn) [Compound 2.606] | < 10 nM
40 | CCC1(c2cc(Br)cc(C#N)c2)C(C#N)=C(N)Oc2[nH]nc(C(F)F)c21 (stereo not drawn) [Compound 2.607] | < 10 nM
41 | CCCC1(c2cc(Cl)cc(C#N)c2)C(C#N)=C(N)Oc2[nH]nc(C(F)F)c21 (stereo not drawn) [Compound 2.608] | < 10 nM
42 | CCCC1(c2cc(Br)cc(C#N)c2)C(C#N)=C(N)Oc2[nH]nc(C(F)F)c21 (stereo not drawn) [Compound 2.609] | < 100 nM
43 | CCCC1(c2cc(C#N)cc(C#N)c2)C(C#N)=C(N)Oc2[nH]nc(C(F)F)c21 (stereo not drawn) [Compound 2.610] | < 100 nM
44 | Cc1n[nH]c2c1C(c1cc(C#N)cc(N(C)C(=O)C(C)C)c1)(C1CCC1)C(C#N)=C(N)O2 (stereo not drawn) [Compound 2.613] | < 10 nM
45 | CCCCC(=O)N(C)c1cc(C#N)cc(C2(C3CCC3)C(C#N)=C(N)Oc3[nH]nc(C)c32)c1 (stereo not drawn) [Compound 2.614] | < 10 nM
46 | COc1ccc(C2(C(C)(C)F)C(C#N)=C(N)Oc3[nH]nc(C)c32)cc1Cl (stereo not drawn) [Compound 2.620] | < 10 nM
47 | Cc1n[nH]c2c1C(c1cc(C#N)cc(OCC(=O)O)c1)(C1CCC1)C(C#N)=C(N)O2 (stereo not drawn) [Compound 2.625] | < 100 nM
48 | Cc1n[nH]c2c1C(c1cc(O)cc(C#N)c1)(C1CCC1)C(C#N)=C(N)O2 (stereo not drawn) [Compound 2.626] | < 100 nM
49 | Cc1n[nH]c2c1C(c1cc(C#N)cc(CC(=O)O)c1)(C1CCC1)C(C#N)=C(N)O2 (stereo not drawn) [Compound 2.627] | < 100 nM
50 | Cc1n[nH]c2c1C(c1cc(C#N)cc(N(C)CCC#N)c1)(C1CCC1)C(C#N)=C(N)O2 (stereo not drawn) [Compound 2.629] | < 10 nM
51 | Cc1n[nH]c2c1C(c1cc(C#N)cc(N(C)CC#N)c1)(C1CCC1)C(C#N)=C(N)O2 (stereo not drawn) [Compound 2.631] | < 10 nM
52 | Cc1n[nH]c2c1C(c1cc(C#N)cc(N(C)C(=O)CCC(=O)O)c1)(C1CCC1)C(C#N)=C(N)O2 (stereo not drawn) [Compound 2.632] | < 10 nM
53 | Cc1n[nH]c2c1C(c1cc(C#N)cc(N(C)C(=O)c3cccc(C(=O)O)c3)c1)(C1CCC1)C(C#N)=C(N)O2 (stereo not drawn) [Compound 2.633] | < 100 nM
54 | Cc1n[nH]c2c1C(c1cc(C#N)cc(N(C)C(=O)c3ccc(C(=O)O)cc3)c1)(C1CCC1)C(C#N)=C(N)O2 (stereo not drawn) [Compound 2.634] | < 100 nM

Source: patent US9480259B2, “Pyrazolopyrans having herbicidal and pharmaceutical properties” (BASF SE, priority 2012, dated 2016)
